According to ChEMBL document CHEMBL2074469, “Analysis of methotrexate and folate transport by multidrug resistance protein 4 (ABCC4): MRP4 is a component of the methotrexate efflux system” (Cancer Res, 2002):
Values belong to the molecule of their own block, whether it stands above or below them.

What was measured:
Assay type in all cases: functional, cell membranes, Membrane vesicle
[1] = biological target: T1, MRP4 (ATP-binding cassette sub-family C member 4) (Homo sapiens, UniProt O15439); assay: TP_TRANSPORTER: inhibition of MTX uptake (MTX: 20 uM, Sildenafil: 10 uM) in membrane vesicles from MRP4-expressing Sf9 cells; design: scale not given: the % may be the effect or the level left; conditions: probe MTX (20 uM), read-out: Activity
T1 sequence (O15439 whole entry): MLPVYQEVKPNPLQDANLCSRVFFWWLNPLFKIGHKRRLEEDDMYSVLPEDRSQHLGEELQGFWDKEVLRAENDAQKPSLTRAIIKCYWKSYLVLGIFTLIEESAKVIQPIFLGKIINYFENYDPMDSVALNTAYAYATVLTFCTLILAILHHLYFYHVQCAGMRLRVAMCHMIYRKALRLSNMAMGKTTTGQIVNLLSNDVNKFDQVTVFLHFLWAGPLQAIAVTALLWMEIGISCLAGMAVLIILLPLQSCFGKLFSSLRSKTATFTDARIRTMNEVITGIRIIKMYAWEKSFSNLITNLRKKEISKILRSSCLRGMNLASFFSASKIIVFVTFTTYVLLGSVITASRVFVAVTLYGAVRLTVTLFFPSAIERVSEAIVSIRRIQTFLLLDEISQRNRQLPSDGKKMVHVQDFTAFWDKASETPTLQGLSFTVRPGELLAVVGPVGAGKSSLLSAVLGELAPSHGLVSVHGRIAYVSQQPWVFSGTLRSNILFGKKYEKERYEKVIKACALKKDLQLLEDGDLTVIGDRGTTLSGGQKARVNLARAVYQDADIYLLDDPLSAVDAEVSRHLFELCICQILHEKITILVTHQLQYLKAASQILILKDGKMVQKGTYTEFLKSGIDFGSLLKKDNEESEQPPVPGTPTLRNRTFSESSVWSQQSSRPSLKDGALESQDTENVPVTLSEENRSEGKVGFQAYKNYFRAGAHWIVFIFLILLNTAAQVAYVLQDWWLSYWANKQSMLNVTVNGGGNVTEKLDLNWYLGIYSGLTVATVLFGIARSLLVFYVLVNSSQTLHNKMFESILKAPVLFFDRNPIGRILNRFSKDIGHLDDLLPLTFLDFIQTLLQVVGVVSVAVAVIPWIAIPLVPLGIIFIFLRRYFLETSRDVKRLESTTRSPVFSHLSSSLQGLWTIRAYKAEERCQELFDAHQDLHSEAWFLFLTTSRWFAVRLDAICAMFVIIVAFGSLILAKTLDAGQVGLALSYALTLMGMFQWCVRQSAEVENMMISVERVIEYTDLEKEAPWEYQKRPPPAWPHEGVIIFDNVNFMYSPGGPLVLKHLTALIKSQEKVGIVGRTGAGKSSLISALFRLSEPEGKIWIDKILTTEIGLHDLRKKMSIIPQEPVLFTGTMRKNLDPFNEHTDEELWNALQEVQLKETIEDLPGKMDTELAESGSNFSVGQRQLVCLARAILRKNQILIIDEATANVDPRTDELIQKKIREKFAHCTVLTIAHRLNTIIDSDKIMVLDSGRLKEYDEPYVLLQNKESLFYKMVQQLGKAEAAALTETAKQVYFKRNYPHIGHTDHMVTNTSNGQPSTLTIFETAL

[2] = biological target: T1, MRP4 (ATP-binding cassette sub-family C member 4); assay: TP_TRANSPORTER: inhibition of MTX uptake (MTX: 20 uM, cGMP: 300 uM) in membrane vesicles from MRP4-expressing Sf9 cells; design: scale not given: the % may be the effect or the level left; conditions: probe MTX (20 uM), read-out: Activity
[3] = biological target: T1, MRP4 (ATP-binding cassette sub-family C member 4); assay: TP_TRANSPORTER: inhibition of MTX uptake (MTX: 20 uM, Verapamil: 30 uM) in membrane vesicles from MRP4-expressing Sf9 cells; design: scale not given: the % may be the effect or the level left; conditions: probe MTX (20 uM), read-out: Activity
[4] = biological target: T1, MRP4 (ATP-binding cassette sub-family C member 4); assay: TP_TRANSPORTER: inhibition of MTX uptake (MTX: 20 uM, E217betaG: 30 uM) in membrane vesicles from MRP4-expressing Sf9 cells; design: scale not given: the % may be the effect or the level left; conditions: probe MTX (20 uM), read-out: Activity
[5] = biological target: T1, MRP4 (ATP-binding cassette sub-family C member 4); assay: TP_TRANSPORTER: inhibition of MTX uptake (MTX: 20 uM, Folic acid: 300 uM) in membrane vesicles from MRP4-expressing Sf9 cells; design: scale not given: the % may be the effect or the level left; conditions: probe MTX (20 uM), read-out: Activity
[6] = biological target: T1, MRP4 (ATP-binding cassette sub-family C member 4); assay: TP_TRANSPORTER: inhibition of MTX uptake (MTX: 20 uM, Leucovorin: 300 uM) in membrane vesicles from MRP4-expressing Sf9 cells; design: scale not given: the % may be the effect or the level left; conditions: probe MTX (20 uM), read-out: Activity
[7] = biological target: T1, MRP4 (ATP-binding cassette sub-family C member 4); assay: TP_TRANSPORTER: inhibition of MTX uptake (MTX: 20 uM, MK571: 1 uM) in membrane vesicles from MRP4-expressing Sf9 cells; design: scale not given: the % may be the effect or the level left; conditions: probe MTX (20 uM), read-out: Activity
[8] = biological target: T1, MRP4 (ATP-binding cassette sub-family C member 4); assay: TP_TRANSPORTER: inhibition of MTX uptake (MTX: 20 uM, Probenecid: 300 uM) in membrane vesicles from MRP4-expressing Sf9 cells; design: scale not given: the % may be the effect or the level left; conditions: probe MTX (20 uM), read-out: Activity
[9] = biological target: T1, MRP4 (ATP-binding cassette sub-family C member 4); assay: TP_TRANSPORTER: inhibition of MTX uptake (MTX: 20 uM, Sulfinpyrazone: 300 uM) in membrane vesicles from MRP4-expressing Sf9 cells; design: scale not given: the % may be the effect or the level left; conditions: probe MTX (20 uM), read-out: Activity
[10] = biological target: T1, MRP4 (ATP-binding cassette sub-family C member 4); assay: TP_TRANSPORTER: inhibition of MTX uptake (MTX: 20 uM, Trequinsin: 10 uM) in membrane vesicles from MRP4-expressing Sf9 cells; design: scale not given: the % may be the effect or the level left; conditions: probe MTX (20 uM), read-out: Activity
[11] = biological target: T1, MRP4 (ATP-binding cassette sub-family C member 4); assay: TP_TRANSPORTER: inhibition of MTX uptake (MTX: 20 uM, PSC-833: 10 uM) in membrane vesicles from MRP4-expressing Sf9 cells; design: scale not given: the % may be the effect or the level left; conditions: probe MTX (20 uM), read-out: Activity
[12] = biological target: T1, MRP4 (ATP-binding cassette sub-family C member 4); assay: TP_TRANSPORTER: inhibition of MTX uptake (MTX: 20 uM, Zaprinast: 10 uM) in membrane vesicles from MRP4-expressing Sf9 cells; design: scale not given: the % may be the effect or the level left; conditions: probe MTX (20 uM), read-out: Activity
[13] = substrate: Nc1nc2c(c(=O)[nH]1)N(C=O)C(CNc1ccc(C(=O)N[C@@H](CCC(=O)O)C(=O)O)cc1)CN2; assay: (§1) TP_TRANSPORTER: uptake in membrane vesicles from MRP4-expressing Sf9 cells
[14] = substrate: Nc1nc2ncc(CNc3ccc(C(=O)N[C@@H](CCC(=O)O)C(=O)O)cc3)nc2c(=O)[nH]1; assay: as §1

activity at 10 µM [1]: 46%
Molecule: CCCc1nn(C)c2c(=O)[nH]c(-c3cc(S(=O)(=O)N4CCN(C)CC4)ccc3OCC)nc12

activity at 30 µM [3]: 53.8%
Molecule: COc1ccc(CCN(C)CCCC(C#N)(c2ccc(OC)c(OC)c2)C(C)C)cc1OC (centres undefined)

activity at 1 µM [7]: 56.4%
Molecule: CN(C)C(=O)CCSC(SCCC(=O)O)c1cccc(/C=C/c2ccc3ccc(Cl)cc3n2)c1 (centres undefined) [MK-571]

activity at 10 µM [10]: 25.7%
Molecule: COc1cc2c(cc1OC)-c1c/c(=N\c3c(C)cc(C)cc3C)n(C)c(=O)n1CC2 [TREQUINSIN]

Second part, the molecule before the results:

Molecule: Nc1nc2c(ncn2[C@@H]2O[C@@H]3COP(=O)(O)O[C@H]3[C@H]2O)c(=O)[nH]1
activity at 300 µM [2]: 46.5%

Molecule: C[C@]12CC[C@@H]3c4ccc(O)cc4CC[C@H]3[C@@H]1CC[C@@H]2O[C@@H]1O[C@H](C(=O)O)[C@@H](O)[C@H](O)[C@H]1O [ESTRADIOL 17B GLUCURONIDE]
activity at 30 µM [4]: 39.9%

Molecule: Nc1nc2ncc(CNc3ccc(C(=O)N[C@@H](CCC(=O)O)C(=O)O)cc3)nc2c(=O)[nH]1 [FOLIC ACID]
activity at 300 µM [5]: 45%

Molecule: Nc1nc2c(c(=O)[nH]1)N(C=O)C(CNc1ccc(C(=O)N[C@@H](CCC(=O)O)C(=O)O)cc1)CN2 (some centres undefined) [LEUCOVORIN]
activity at 300 µM [6]: 71.2%

Molecule: CCCN(CCC)S(=O)(=O)c1ccc(C(=O)O)cc1 [PROBENECID]
activity at 300 µM [8]: 49.4%

Molecule: O=C1C(CC[S+]([O-])c2ccccc2)C(=O)N(c2ccccc2)N1c1ccccc1 (centres undefined) [SULFINPYRAZONE]
activity at 300 µM [9]: 23.3%

Molecule: C/C=C/C[C@@H](C)C(=O)[C@H]1C(=O)N[C@@H](C(C)C)C(=O)N(C)CC(=O)N(C)[C@@H](CC(C)C)C(=O)N[C@@H](C(C)C)C(=O)N(C)[C@@H](CC(C)C)C(=O)N[C@@H](C)C(=O)N[C@H](C)C(=O)N(C)[C@@H](CC(C)C)C(=O)N(C)[C@@H](CC(C)C)C(=O)N(C)[C@@H](C(C)C)C(=O)N1C [VALSPODAR]
activity at 10 µM [11]: 56.4%

Molecule: CCCOc1ccccc1-c1nc2nn[nH]c2c(=O)[nH]1 [ZAPRINAST]
activity at 10 µM [12]: 34.1%

B1: ATP-binding cassette sub-family C member 4 (Homo sapiens) (protein)
chain: T1 sequence (O15439 whole entry)
Km [13]: 640 µM
Km [14]: 170 µM
